Measured values published in patent publication US20090054245A1, “Method for detecting gastric cancer by detecting VLDLR gene” (FUJIFILM Corporation, priority 2006, published 2009).
Entries after “also recorded” stand apart in the source; their conditions may differ.

Legend:
[1] = tested on: human VLDLR gene expression in SNU601 and MKN74 cells; assay: RT-PCR analysis of human VLDLR expression in gastric cancer cells treated with 5-aza-dC and/or TSA; type: cell-based
Description: An empty pGL3 basic vector (mock) and constructs each comprising a different one of 3 sequences (fragments 1 to 3) upstream or in the proximity of VLDLR exon 1 were separately introduced into SNU601 and MKN74 cells. Luciferase activity was normalized relative to that of an internal control. Data shown in FIG. 3B contains mean values±SEMs of triplicate experiments of 3 different constructs. […] Arrows indicate fragments that were digested with restriction enzymes in a specific manner at sites recognized as methylated CpGs. […] With the use of two fragments (BS-1 and BS-2), all of the 71 CpG sites were subjected to sequencing. Squares represent CpG sites (white square: unmethylated site; and black square: methylated site).
The human VLDLR gene expression was examined in the cases in which CpG islands of the human VLDLR gene in gastric cancer cells were demethylated. Specifically, gastric cancer cells were treated in the presence of 5-aza-dC (serving as a transmethylase inhibitor) at different concentrations for 5 days, followed by determination of the capacity of inducing human VLDLR mRNA. […] RT-PCR was carried out with the use of two types of specific primers used for amplification of human VLDLR gene, followed by electrophoresis. GAPDH was used as an internal control. […]

[2] = tested on: CpG islands of the human VLDLR gene in gastric cancer cells; assay: Demethylation of VLDLR CpG islands by culturing gastric cancer cells with 5-aza-dC; type: cell-based; conditions: gastric cancer cells cultured in the presence of 5-aza-dC
Description: In addition, the extent of methylation of the CpG islands strongly correlated with inhibition of the expression of the human VLDLR gene in some gastric cancer cells.

Structure (SMILES) | human VLDLR gene expression level in the presence of TSA ([1]; SNU601 and MKN74 cells with densely methylated VLDLR CpG islands, TSA (10 ng/ml in FIG. 3A legend)) | human VLDLR mRNA expression after 5-aza-dC treatment ([1]; SNU601 and MKN74 cells (no VLDLR expression, no homozygous deletion), 5-aza-dC for 5 days (10 μM in FIG. 3A legend)) | demethylation of CpG islands of the human VLDLR gene [2]
CC(/C=C/C(=O)NO)=C\[C@@H](C)C(=O)c1ccc(N(C)C)cc1 [TSA, trichostatin A] | equivalent to that obtained in the absence of TSA |  | 
Nc1ncn([C@H]2C[C@H](O)[C@@H](CO)O2)c(=O)n1 [5-aza-dC, 5-azadeoxycytidine] |  | possible to recover the expression level of the human VLDLR gene; also recorded: found to have the capacity of inducing human VLDLR mRNA | possible to demetylate such CpG islands
